“Also recorded” adds a separate entry of the source.
Assays:
AK^+ and AK^– cells = conditions: cited from earlier work
ZIKV = assay: microbe, parasite or virus in culture; format: cell-based; conditions: Zika virus, read-out: ZIKV EC50
+RNA viruses = format: cell-based
Vero cells = conditions: African green monkey
CHIKV = format: cell-based, chikungunya virus
[1] = target: recombinant human SAH hydrolase (Homo sapiens, UniProt P23526); format: biochemical
recombinant human SAH hydrolase, sequence (P23526 whole entry): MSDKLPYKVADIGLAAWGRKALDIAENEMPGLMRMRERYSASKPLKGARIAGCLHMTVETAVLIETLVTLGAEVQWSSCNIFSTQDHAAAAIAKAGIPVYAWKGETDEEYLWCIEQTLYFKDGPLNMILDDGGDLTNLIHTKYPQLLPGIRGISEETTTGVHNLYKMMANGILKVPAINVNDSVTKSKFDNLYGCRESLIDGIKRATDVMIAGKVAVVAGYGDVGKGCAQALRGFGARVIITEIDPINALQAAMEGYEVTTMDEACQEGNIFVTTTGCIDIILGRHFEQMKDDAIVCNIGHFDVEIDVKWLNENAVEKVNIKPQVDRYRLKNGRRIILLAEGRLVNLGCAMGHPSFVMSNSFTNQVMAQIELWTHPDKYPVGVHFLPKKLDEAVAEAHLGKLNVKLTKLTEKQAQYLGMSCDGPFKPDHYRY

Nc1ncnc2c1ncn2[C@@H]1C[C@H](CO)[C@@H](O)[C@H]1O [Compound 1, (−)-Aristeromycin]
toxicity in AK^+ and AK^– cells (AK^+ and AK^– cells): toxic at low concentrations

O=c1ccn([C@H]2[C@H](O)[C@H](O)[C@@H](CO)[C@H]2F)c(=O)[nH]1 [Compound 2f, 1-((1S,2R,3R,4R,5S)-2-Fluoro-4,5-dihydroxy-3-(hydroxymethyl)cyclopentyl)pyrimidine-2,4(1H,3H)-dione]
EC50 (ZIKV): > 100 µM

CNc1ncnc2c1ncn2[C@H]1[C@H](O)[C@H](O)[C@@H](CO)C1(F)F [Compound 2e, (1S,2R,3R,5S)-4,4-Difluoro-3-(hydroxymethyl)-5-(6-(methylamino)-9H-purin-9-yl)cyclopentane-1,2-diol]
antiviral activity against +RNA viruses (in words) (+RNA viruses): did not show significant antiviral activities

Nc1ncnc2c1ncn2[C@H]1[C@H](O)[C@H](O)[C@@H](CO)C1(F)F [Compound 2c, (1R,2S,3S,5R)-3-(6-Amino-9H-purin-9-yl)-4,4-difluoro-5-(hydroxymethyl)cyclopentane-1,2-diol]
reduction in cytotoxicity versus 2a (Vero cells): > 5 fold | reduction of infectious CHIKV titers (CHIKV): more than 2 log

CNc1ncnc2c1ncn2[C@H]1[C@H](O)[C@H](O)[C@@H](CO)[C@H]1F [Compound 2d, (1S,2R,3R,4R,5S)-4-Fluoro-3-(hydroxymethyl)-5-(6-(methylamino)-9H-purin-9-yl)cyclopentane-1,2-diol]
SAH hydrolase inhibitory activity, fold decrease versus 2a [1]: 11.9 fold | antiviral activity against +RNA viruses (in words) (+RNA viruses): did not show significant antiviral activities

CC(C)OC(=O)[C@H](C)N[P@](=O)(OC[C@@H]1[C@@H](O)[C@@H](O)[C@H](n2cnc3c(N)ncnc32)C1(F)F)Oc1ccccc1 [Compound 3a, Iso-propyl ((S)-(((1R,3S,4S,5R)-3-(6-Amino-9H-purin-9-yl)-2,2-difluoro-4,5-dihydroxycyclopentyl)methoxy)(phenoxy)phosphoryl)-L-alaninate]
antiviral activity against +RNA viruses (in words) (+RNA viruses): potent broad-spectrum antiviral activity; also recorded: exhibited significant broad-spectrum antiviral activities

O=c1ccn([C@H]2[C@H](O)[C@H](O)[C@@H](CO)[C@@H]2F)c(=O)[nH]1 [Compound 2g, 1-((1S,2S,3R,4R,5S)-2-Fluoro-4,5-dihydroxy-3-(hydroxymethyl)cyclopentyl)pyrimidine-2,4(1H,3H)-dione]
EC50 (ZIKV): > 100 µM

Source: article PMC7075649 (Journal of Medicinal Chemistry, 2019)
